Experimental findings from US20100056524A1, “Compound” (priority 2008, published 2010) are described below.

Structures can show the parent of a compound that is named as a salt. Some results are limits rather than exact numbers.

One experiment has as its target T1, TBK1 (Homo sapiens, UniProt Q9UHD2).
T1 construct: All protein kinases were of human origin and encoded full length proteins, unless indicated otherwise; His6; made in house; host or cells: insect Sf21 cells
T1 sequence (Q9UHD2 1-729): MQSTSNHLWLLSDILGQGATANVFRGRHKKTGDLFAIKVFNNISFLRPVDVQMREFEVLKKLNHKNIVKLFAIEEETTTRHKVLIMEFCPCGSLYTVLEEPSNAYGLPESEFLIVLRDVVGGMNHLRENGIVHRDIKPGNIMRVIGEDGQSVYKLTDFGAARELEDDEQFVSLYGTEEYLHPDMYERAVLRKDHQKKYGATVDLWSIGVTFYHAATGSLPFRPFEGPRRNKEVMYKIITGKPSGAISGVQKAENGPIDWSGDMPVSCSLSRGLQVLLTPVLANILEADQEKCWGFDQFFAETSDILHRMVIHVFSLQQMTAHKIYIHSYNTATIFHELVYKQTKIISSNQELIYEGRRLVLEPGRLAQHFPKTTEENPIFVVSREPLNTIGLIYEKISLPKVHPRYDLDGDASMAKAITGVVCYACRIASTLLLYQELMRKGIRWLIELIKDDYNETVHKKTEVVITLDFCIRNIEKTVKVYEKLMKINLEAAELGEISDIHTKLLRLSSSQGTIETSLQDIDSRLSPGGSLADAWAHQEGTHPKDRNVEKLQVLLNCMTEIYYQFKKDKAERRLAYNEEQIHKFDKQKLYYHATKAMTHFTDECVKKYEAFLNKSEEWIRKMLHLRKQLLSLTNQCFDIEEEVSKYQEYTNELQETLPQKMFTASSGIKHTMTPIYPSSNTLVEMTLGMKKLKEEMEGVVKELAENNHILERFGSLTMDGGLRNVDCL
The experiment can be described thus: TBK1 protein kinase assay ([γ-33P]ATP, P81 filterplates). Particulars: 50 μM ATP; read-out: Potency (TBK1 IC50 potency score). Type of experiment: biochemical. In a few lines:
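Human TBK1 assayed for 30 min with peptide substrate (300 μM), 50 μM [γ-33P]ATP and 10 mM magnesium acetate in 50 mM Tris/HCl pH 7.5, 0.1 mM EGTA, 0.1% 2-mercaptoethanol. Stopped with orthophosphoric acid and counted on P81 filters. IC50 from 10 compound concentrations.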
As a reminder, the IC50 is the concentration that inhibits the measured activity by half. Regarding `CN(C)C1CCN(C(=O)c2cccc(Nc3ncc(C4CC4)c(NCCCNC(=O)C4CCC4)n3)c2)CC1` [Example 81, Cyclobutanecarboxylic acid (3-{5-cyclopropyl-2-[3-(4-dimethylamino-piperidine-1-carbonyl)-phenylamino]-pyrimidin-4-ylamino}-propyl)-amide], the IC50 was under 0.1 µM.
Regarding `CN1CCc2ccc(Nc3ncc(C4CC4)c(NCCCNC(=O)C4CCC4)n3)cc2C1` [Example 197, Cyclobutanecarboxylic acid {3-[5-cyclopropyl-2-(2-methyl-1,2,3,4-tetrahydro-isoquinolin-7-ylamino)-pyrimidin-4-ylamino]-propyl}-amide], the IC50 is under 0.1 µM.
Regarding `O=C(NCCCNc1nc(Nc2ccc(S(=O)(=O)Nc3ncccn3)cc2)ncc1C1CC1)C1CCC1` [Example 163, Cyclobutanecarboxylic acid (3-{5-cyclopropyl-2-[4-(pyrimidin-2-ylsulfamoyl)-phenylamino]-pyrimidin-4-ylamino}-propyl)-amide], the IC50 was under 0.1 µM.
As for `CC(C)N1CCC(n2cc(Nc3ncc(C4CC4)c(NCCCNC(=O)C4CCC4)n3)cn2)CC1` [Example 203, Cyclobutanecarboxylic acid (3-{5-cyclopropyl-2-[1-(1-isopropyl-piperidin-4-yl)-1H-pyrazol-4-ylamino]-pyrimidin-4-ylamino}-propyl)-amide], the IC50 was under 0.1 µM.
With `Cn1cnc(C(=O)NCCCNc2nc(Nc3cccc(F)c3)ncc2C2CC2)c1` [Example 10, 1-Methyl-1H-imidazole-4-carboxylic acid {3-[5-cyclopropyl-2-(3-fluoro-phenylamino)-pyrimidin-4-ylamino]-propyl}-amide trifluoroacetic acid salt], the IC50 lay in the range of 1 to 10 µM.
For the compound `CN1CCC(CNC(=O)c2cccc(Nc3ncc(C4CC4)c(NCCCNC(=O)C4CCC4)n3)c2)CC1` [Example 78, 3-{4-[3-(Cyclobutanecarbonyl-amino)-propylamino]-5-cyclopropyl-pyrimidin-2-ylamino}-N-(1-methyl-piperidin-4-ylmethyl)-benzamide], the IC50 is under 0.1 µM.
As for `CN1CCN(C(=O)Cc2cccc(Nc3ncc(C4CC4)c(NCCCNC(=O)C4CCC4)n3)c2)CC1` [Example 127, Cyclobutanecarboxylic acid [3-(5-cyclopropyl-2-{3-[2-(4-methyl-piperazin-1-yl)-2-oxo-ethyl]-phenylamino}-pyrimidin-4-ylamino)-propyl]-amide], the IC50 was under 0.1 µM.
As for `CC(C)n1cc(Nc2ncc(C3CC3)c(NCCCNC(=O)C3CCC3)n2)cn1` [Example 161, Cyclobutanecarboxylic acid {3-[5-cyclopropyl-2-(1-isopropyl-1H-pyrazol-4-ylamino)-pyrimidin-4-ylamino]-propyl}-amide], the IC50 is under 0.1 µM.
The same measure, in the same setting: for `CN(C)CCc1ccc(Nc2ncc(C3CC3)c(NCCCNC(=O)C3CCC3)n2)cc1` [Example 172, Cyclobutanecarboxylic acid (3-{5-cyclopropyl-2-[4-(2-dimethylamino-ethyl)-phenylamino]-pyrimidin-4-ylamino}-propyl)-amide] the value was under 0.1 µM.
The same measure, in the same setting: to `O=C(NCCCNc1nc(Nc2cccc(F)c2)ncc1C1CC1)C1CCCC1` [Example 22, Cyclopentanecarboxylic acid {3-[5-cyclopropyl-2-(3-fluoro-phenylamino)pyrimidin-4-ylamino]-propyl}-amide] belongs under 0.1 µM; to `O=C(NCCCNc1nc(Nc2ccccc2F)ncc1C1CC1)c1cccs1` [Example 52, Thiophene-2-carboxylic acid {3-[5-cyclopropyl-2-(2-fluoro-phenylamino)-pyrimidin-4-ylamino]-propyl}-amide], 0.1 to 1 µM; to `O=C(NCCCNc1nc(Nc2ccc3[nH]c(C(F)(F)F)nc3c2)ncc1C1CC1)c1cccs1` [Example 62, Thiophene-2-carboxylic acid {3-[5-cyclopropyl-2-(2-trifluoromethyl-1H-benzimidazol-5-ylamino)-pyrimidin-4-ylamino]-propyl}-amide], 1 to 10 µM.
In the case of `CC(C)C(=O)NCCCNc1nc(Nc2cccc(F)c2)ncc1C1CC1` [Example 2, N-{3-[5-Cyclopropyl-2-(3-fluoro-phenylamino)-pyrimidin-4-ylamino]-propyl}-isobutyramide trifluoroacetic acid salt], the IC50 is under 0.1 µM.
For the compound `O=C(NCCCNc1nc(Nc2cccc(N3CCNC3=O)c2)ncc1C1CC1)C1CCC1` [Example 140, Cyclobutanecarboxylic acid (3-{5-cyclopropyl-2-[3-(2-oxo-imidazolidin-1-yl)-phenylamino]-pyrimidin-4-ylamino}-propyl)-amide], the concentration for half-maximal inhibition (IC50) was under 0.1 µM.
On to `Cn1cnc2cc(Nc3ncc(C4CC4)c(NCCCNC(=O)C4CCC4)n3)cnc21` [Example 198, Cyclobutanecarboxylic acid {3-[5-cyclopropyl-2-(3-methyl-3H-imidazo[4,5-b]pyridin-6-ylamino)-pyrimidin-4-ylamino]-propyl}-amide], for which the IC50 was under 0.1 µM.
As to `N#CCc1cccc(Nc2ncc(C3CC3)c(NCCCNC(=O)C3CCC3)n2)c1` [Example 136, Cyclobutanecarboxylic acid {3-[2-(3-cyanomethyl-phenylamino)-5-cyclopropyl-pyrimidin-4-ylamino]-propyl}-amide], the IC50 was under 0.1 µM.
On to `O=C1CCCCN1CCCNc1nc(Nc2cccc(F)c2)ncc1C1CC1` [Example 110], for which the IC50 lay within 0.1 to 1 µM.
Consider `O=C(NCCCNc1nc(Nc2ccc(CN3CCOCC3)nc2)ncc1C1CC1)C1CCC1` [Example 104, Cyclobutanecarboxylic acid {3-[5-cyclopropyl-2-(6-morpholin-4-ylmethyl-pyridin-3-ylamino)-pyrimidin-4-ylamino]-propyl}-amide], for which the half-inhibitory concentration (IC50) was under 0.1 µM.
Turning to `Cn1ncc2ccc(Nc3ncc(C4CC4)c(NCCCNC(=O)C4CCC4)n3)cc21` [Example 139, Cyclobutanecarboxylic acid {3-[5-cyclopropyl-2-(1-methyl-1H-indazol-6-ylamino)-pyrimidin-4-ylamino]-propyl}-amide], the IC50 is under 0.1 µM.
`CN1CCN(C(=O)c2cccc(Nc3ncc(C4CC4)c(NCCCNC(=O)C4CCC4)n3)c2)CC1` [Example 77, Cyclobutanecarboxylic acid (3-{5-cyclopropyl-2-[3-(4-methyl-piperazine-1-carbonyl)-phenylamino]-pyrimidin-4-ylamino}-propyl)-amide]: the IC50 was under 0.1 µM.
For the compound `O=C(NCCCNc1nc(Nc2cccc(F)c2)ncc1C1CC1)c1cccs1` [Example 26, Thiophene-2-carboxylic acid {3-[5-cyclopropyl-2-(3-fluoro-phenylamino)-pyrimidin-4-ylamino]-propyl}-amide], the IC50 lay within 0.1 to 1 µM.
With `CN(Cc1cccc(Nc2ncc(C3CC3)c(NCCCNC(=O)C3CCC3)n2)c1)C1CCCC1` [Example 132, Cyclobutanecarboxylic acid [3-(2-{3-[(cyclopentyl-methyl-amino)-methyl]-phenylamino}-5-cyclopropyl-pyrimidin-4-ylamino)-propyl]-amide], the IC50 was under 0.1 µM.
Take `O=C(NCCCNc1nc(Nc2ccc(Cn3cncn3)cc2)ncc1C1CC1)C1CCC1` [Example 182, Cyclobutanecarboxylic acid {3-[5-cyclopropyl-2-(4-1,2,4-triazol-1-ylmethyl-phenylamino)-pyrimidin-4-ylamino]-propyl}-amide]: the 50% inhibitory concentration (IC50) is under 0.1 µM.
The same measure, in the same setting: to `O=C(NCCCNc1nc(Nc2cccc(F)c2)ncc1C1CC1)c1ccn[nH]1` [Example 7, 2H-Pyrazole-3-carboxylic acid {3-[5-cyclopropyl-2-(3-fluoro-phenylamino)-pyrimidin-4-ylamino]-propyl}-amide trifluoroacetic acid salt] belongs 0.1 to 1 µM; to `CN1CCC(c2ccc(Nc3ncc(C4CC4)c(NCCCNC(=O)C4CCC4)n3)cc2)CC1` [Example 171, Cyclobutanecarboxylic acid (3-{5-cyclopropyl-2-[4-(1-methyl-piperidin-4-yl)-phenylamino]-pyrimidin-4-ylamino}-propyl)-amide], under 0.1 µM.
As for `N#Cc1cccc(Nc2ncc(C3CC3)c(NCCCNC(=O)c3cccs3)n2)c1` [Example 61, Thiophene-2-carboxylic acid {3-[2-(3-cyano-phenylamino)-5-cyclopropyl-pyrimidin-4-ylamino]-propyl}-amide], the IC50 lay within 0.1 to 1 µM.

The experiment is the same for the next values; noted with them: Table 5; 50 μM ATP; read-out: TBK1 IC50.
As for `O=C(NCCCNc1nc(Nc2cccc(F)c2)ncc1CC1CC1)C1CCC1` [Compound C, cyclobutanecarboxylic acid {3-[5-cyclopropylmethyl-2-(3-fluoro-phenylamino)-pyrimidin-4-ylamino]-propyl}-amide, reference compound], the IC50 was over 1 µM.
